In patent publication US5786332A, “Cytokine restraining agents and methods of use in pathologies and conditions associated with altered cytokine levels” (Trega Biosciences, Inc., priority 1995, dated 1998):

How the values were obtained:
Sprague-Dawley rats [1] = assay: Streptozotocin-induced diabetes, plasma glucose; format: in vivo; conditions: STZ 65 mg/kg iv; EX-2 150 μg/kg every 8 hr for 72 hr
Procedure: B. Induced Diabetes: Male Sprague-Dawley rats were given 65 mg/kg of streptozotocin (STZ) intravenously through the tall vein. Rats were divided into two groups. The first group was administered EX-2, 150 μg/kg every 8 hr for 72 hr and the second group was a control. Blood samples were withdrawn under ether anesthesia every 8 hr for the first 72 hr, then every 12 hr or 24 hr until the end of the observation period. Plasma samples were assayed for glucose using a glucose assay kit (Trinder, Sigma Chemical Co.). As shown in Table VI below EX-2 effect a 72% reduction in blood glucose levels.

Sprague-Dawley rats [2] = assay: Interleukin-1β-induced hyperalgesia (paw pressure); format: in vivo; conditions: 1 μg IP; 2 hr after IL-1β intra plantar
Procedure: These experiments were performed using a modification of the methods described by Poole et al., Br. J. Pharmacol. 106:489-492 (1992); Follenfant et al., Br. J. Pharmacol. 98:41-43 (1989); and Randall and Sellito, Arch. Internatl. Pharmacodyn. 111:409-419 (1957), each of which is incorporated herein by reference. Adult male Sprague-Dawley rats (175-275 g) were tested for hyperalgesia by a paw pressure technique using variable pressure instrumentation (IITC Life Sciences; Woodland Hills, Calif.). Rats were acclimated to the housing environment and were handled for three days prior to beginning a training session. On the day before the hyperalgesia experiments was to begin, each rat was placed into a sock and two variable paw pressure tests were performed 15 min apart.
Approximately 5-10% of the rats were non-responders and were eliminated from further experiments.
Animals that responded to the paw pressure were pretreated by IP injection of various concentrations of EX-2 in a volume of 1 ml/kg (treated) or saline, alone (control). After 20 min, 100 μl of IL-1β (1U/100 μl) was administered to rats via intra plantar injection. Two hr after IL-1 administration, rats were subjected to two additional paw pressure tests and the increase in mm Hg of pressure that could be applied to the EX-2-treated rats as compared to the control rats was determined.

[3] = tested on: inducible nitric oxide synthase (INOS); assay: Inducible nitric oxide synthase induction in rat aorta smooth muscle cells (cGMP RIA); format: cell-based; conditions: RASMC; 0.1 or 1 μM EX-2 before LPS, IL-1β or TNF-α (not specified which)
Procedure: A. Inducible Nitric Oxide Synthase (INOS): Rat aorta smooth muscle cells (RASMC) were isolated from male rats (325-350 g) using the previously published procedures of Gelsterfer et al., Circ. Res. 62:749-756 (1988), which is incorporated herein by reference. Cells were positively identified as smooth muscle cells by indirect immunofluorescent staining for anti-α-actin, using a mouse anti-α-actin antibody and anti-mouse IgG FITC conjugate. Cells were grown in T-75 tissue culture flasks (Corning Delbelco's Glass, Inc.; Corning, N.Y.) in 50% F12 and 50% Delbelco's Modified Eagle Medium (DMEM) supplemented with 10% bovine serum, 0.2 g/l L-glutamine, penicillin (100 U/ml) and streptomycin (0.1 mg/ml).
Cells between passages 1-5 were pretreated with one of the following: vehicle, LPS (1 μg/ml), IL-1β (10 U/ml), or TNF-α (100 U/ml) for 6 hr. […] Accumulation of cGMP was determined following exposure to 0.3 mM 3-isobutyl-1-methyl xanthine (IBMX) in the presence or absence of 1 mM L-arginine. […] The HCl extract was analyzed for cGMP by RIA and the NaOH-solubilized cell remnants were used for protein determination.
Male Sprague-Dawley rats were anesthetized with 55 mg/kg pentobarbital IP. […] RASMC were incubated with plasma from control or EX-2-treated animals and the ability of plasma components to inhibit the induction of INOS by LPS or IL-1β was determined as above. […]

TNF-α = assay: Reduction of LPS-induced TNF levels in mice (IP dosing, ELISA); format: in vivo; conditions: 30 μg/mouse IP; LPS 5 mg/kg IP; vs untreated control mice
Procedure: Balb/c female mice weighing approximately 20 g were placed into two groups, a control group and a treated group. Five mg/kg of LPS in 0.9% saline was administered by intraperitoneal (IP) injection into the control mice. Mice in the treated group were first injected IP with 30 μg EX-2 or 150 μg EX-3 in saline, then, one mn after EX-2 or EX-3 was administered, the mice received LPS as described for the control group.
Blood samples were collected from the orbital sinus of treated and control mice at various times up to four hr after LPS was administered. The plasma was separated by centrifugation at 3000×g for 5 min, then diluted with four volumes of 1× phosphate buffer saline (pH 7.4) containing 1% bovine serum albumin. A 100 μl sample of serum was assayed by ELISA for TNF-α (Genzyme; Cambridge Mass.).
The mean (+/-SEM) TNF-α level in six mice from each group was determined and the percent reduction in TNF levels was calculated.

## Ac-Nle-Gln-His-(D)Phe-Arg-(D)Trp-Gly-NH2 [EX-2]
Sprague-Dawley rats [1]
  % Reduction of induced increase in Blood Glucose (mg/dl), STZ Diabetes: 72%
Sprague-Dawley rats [2]
  Reduction in IL-1-induced Hyperalgesia (increase in tolerated paw pressure vs control): 125%
[3]
  % Reduction of induced increase in cGMP (pmol/100 mg/5 min), INOS: 60%
TNF-α
  Reduction in TNF levels: 50%
